# Assay results: patent US20170355959A1, “METHODS FOR MOBILISING POPULATIONS OF STEM CELLS” (Imperial Innovations Limited, priority 2014, published 2017)
# What was measured:
# Format in all cases: in vivo, mice
# HSPCs = experiment: Mobilization of HSPCs into peripheral blood (CFU-HPC assay)
# Description: (§1) Mice were administered the β-adrenergic agonists isoproterenol (10 mg/kg i.p.), clenbuterol (5 mg/kg i.p.) and BRL 37344 (10 mg/kg i.p.), the cannabinoid receptor agonists ACEA (10 mg/kg i.p.) and GP1a (5 mg/kg i.p.), or vehicle either on 4 consecutive days or 2 hours prior to the cull. 1 hour after the last injection, mice were administered the CXCR4 antagonist AMD3100 (5 mg/kg i.p.) or vehicle. 1 hour later their blood was collected via cardiac puncture for enumeration of circulating CFU-HPCs and CFU-Fs. Mice were administered murine G-CSF (100 μg/kg i.p.) or vehicle on 4 consecutive days. On day 5, blood was collected via cardiac puncture for enumeration of circulating HSPCs.
# (§2) Harvested peripheral blood or perfusate was red blood cell-lysed and 1×10^5 cells were added to tissue culture-treated petri dishes containing 1 ml of Methocult™ (M3434; StemCell Technologies) to select for CFU-HPCs. Cultures were incubated at 37° C. and quantified on day 12. Similarly, 1×10^6 bone marrow cells harvested by bone marrow flush of the hind limb femur were plated for CFU-HPCs.
# free fatty acids = experiment: Free fatty acid assay in blood plasma; details: treatment over 4 days
# Description: as §1
# Free fatty acid content in blood plasma was quantified using a serum/plasma fatty acid detection Kit (Zen Bio) and the assay was performed according to the manufacturers' instructions. Data are expressed as μM concentration of free fatty acids.
# HPCs = experiment: In situ perfusion of mouse hind limb, CFU-HPCs in perfusate; details: four day pretreatment, b3 adrenergic agonist in combination with FAAH inhibitor
# Description: (§3) Mice were administered BRL 37344 (10 mg/kg i.p.) or vehicle on 4 consecutive days. 1 hour after the last injection, the mice were anaesthetized. The femoral vein and artery were exposed and cannulated in situ immediately after the hind limb was isolated by occlusion of the surrounding arteries as previously described (Pitchford et al, 2009; Pitchford et al, 2010). Perfusion buffer was infused via the arterial cannula and removed from the venous cannula using a Minipuls Peristaltic Pump (Anachem). The hind limb was initially infused with AMD3100 (0.1 mM) or vehicle for 10 minutes using an infusion/withdrawal pump (Harvard Instruments) and was further perfused for 50 minutes with perfusion buffer (Pitchford et al, 2010). The perfusate was collected over 60 minutes and then centrifuged and resuspended in DMEM (Gibco) +20% fetal bovine serum for enumeration of CFU-HPCs and CFU-Fs.
# as §2
# CFU-Fs (MSCs) = experiment: In situ perfusion of mouse hind limb, CFU-Fs in perfusate; details: four day pretreatment, b3 adrenergic agonist in combination with FAAH inhibitor
# Description: as §3
# Harvested peripheral blood or perfusate was red blood cell-lysed and 1×10^6 cells were added to tissue culture-treated 6-well plates containing 3 ml of Mesencult™ (05502; StemCell Technologies) to select for CFU-Fs. Similarly, 1×10^6 bone marrow cells harvested by bone marrow flush of the hind limb femur were plated for CFU-Fs. Cultures were incubated at 37° C. and media was changed on day 7. Bone marrow-derived CFU-Fs were enumerated on day 13 and blood- and perfusate-derived CFU-Fs were enumerated on day 21. Blood derived-CFU-Fs were further expanded and assessed for mesenchymal lineage markers by flow cytometry and following CD45 depletion (flow cytometry sorting of CD45 negative for mesenchymal trilineage differentiation (Supplemental Experimental Procedures).
# CXCL12 = CXCL12 ELISA of bone marrow supernatant; details: 4 days of treatment, bone marrow 2 hours after final injection
# Description: (A) Mice were pretreated with BRL 37344 (β3), G-CSF or vehicle (VEH) once daily on 4 consecutive days. 2 hours after the final BRL 37344 injection or 24 hours after the final G-CSF injection, bone marrow was collected for quantification of CXCL12 levels (n=16 and n=6-8, respectively). (B) Bone marrow cells were collected from naïve mice and were treated in vitro with clenbuterol (β2), BRL 37344 (β3) or vehicle (VEH). CFU-Fs per 10^6 cells are shown (n=6 mice per group). (C) Mice were pre-treated with AM 251, AM 630, BRL 37344 (β3) or vehicle (VEH) once daily on 4 consecutive days. 2 hours after the last injection, bone marrow cells were collected for enumeration of CFU-Fs. CFU-Fs per 10^6 cells are shown (n=6-8 mice per group). (D) CB1 receptor antagonist AM 251 (CB1l, CB2 receptor antagonist AM 630 (CB2l, BRL 37344 (β3) or vehicle. Data represented as mean±SEM. (A) **p<0.01 (unpaired student t-test) and (B-D) *p<0.05, **p<0.01, ***p<0.001 (one-way ANOVA).
# CXCL12 content in blood plasma and bone marrow supernatant was quantified using CXCL12 capture (MAB350) and detection (BAF351) antibodies (RnD systems), and the assay was performed according to the manufacturers' instructions. Recombinant mouse CXCL12 (RnD systems) was used to generate a standard curve.
structure (smiles),measurement,setting,value
C[C@H](Cc1ccc(OCC(=O)O)cc1)NC[C@H](O)c1cccc(Cl)c1 [BRL37344],pre-treatment time needed for HSPC mobilization,"HSPCs; 2 h versus 4 d pre-treatment, then AMD3100",required the pre-treatment of mice over 4 days to see this effect
same,circulating HSPC numbers,"HSPCs; pre-treated once daily for 4 days, then AMD3100, blood 1 hour later",significantly boosted circulating numbers of HSPCs and CFU-Fs as compared to that observed with isoproterenol and AMD3100 in combination
same,FFA levels in plasma,free fatty acids,an increase
same,HPC egress from the bone marrow in response to infusion of the CXCR4 antagonist,HPCs,significantly enhanced both HPC and MSC egress from the bone marrow
same,MSC egress from the bone marrow in response to infusion of the CXCR4 antagonist,CFU-Fs (MSCs),significantly enhanced both HPC and MSC egress from the bone marrow
same,levels of CXCL12 in the bone marrow,CXCL12,had no effect on levels of CXCL12 in the bone marrow
